Measured values as given in patent US5500414A, “Derivatives of peptides usable as inhibitors of bacterial collagenases” (Commissariat a l'Energie Atomique, priority 1991, dated 1996).

Molecular target: bacterial collagenase
Test: Inhibition of bacterial collagenase; Ki from dissociation and association rate constants, substrate Fa--Leu--Gly--Pro--Ala
Format: biochemical, Empedobacterium collagenolyticum
Conditions: ratio Koff/Kon, slow binding inhibitors, pH7 Tricine buffer
Procedure: The activities of the different compounds A, B, C and D were determined on the one hand by measuring the association rate constant of the inhibitors to collagenase by the method of Morrison, J. & Walsh, C. T., 1987, Adv., Enzymol. Relat. Aeras Mol. Biol. applied in the case where the inhibitors are of the slow binding type and on the other hand by measuring the dissociation rate constants of the inhibitors of the enzyme--inhibitor complex. In this case, after allowing the collagenase to preincubate in the presence of an inhibitor excess, the thus formed enzyme--inhibitor complex is purified by gel filtration. The solution containing the purified complex is then diluted by a factor of 10,000 in a reference buffer and then, as a function of time, measurement takes place of the return of the activity of the collagenase, which represents the dissociation of the inhibitor of the enzyme--inhibitor complex.
The inhibition constants given in the table correspond to the ratio of the dissociation rate constants Koff and the association rate constants Kon measured in this way. In all the activity measurement experiments we used as the synthetic substrate Fa--Leu--Gly--Pro--Ala in a pH7 Tricine buffer. The source of the bacterial collagenase used was the strain Empedobacterium collagenolyticum.

In order of falling Ki:
1. Z,D,L-Phe*PCH2DL-Ala°ProNle°, 2Na^+ [F]  2350 nM
2. Z--Pro--Phe*--PO(OH)--CH2 --CH2 --CO--Pro--Nle* 2Na^+ [Compound B]  80 nM
3. Z--D,LPhe*--PO2 CH2 --CH2 --CO--Pro--Nle*,2Na^+ [Compound A]  12 nM
4. Z--Gly--Pro--Phe*--PO(OH)--CH2 --CH2 --CO--Pro--Nle*2Na^+  0.4 nM
